Structures can show the parent of a compound that is named as a salt. Where two headings read alike, the source gives them in different places.
Columns and labels:
[1] = biological target: T1, human CYP1A2 (Homo sapiens, UniProt P05177); conditions: human
T1 sequence (P05177 1-516): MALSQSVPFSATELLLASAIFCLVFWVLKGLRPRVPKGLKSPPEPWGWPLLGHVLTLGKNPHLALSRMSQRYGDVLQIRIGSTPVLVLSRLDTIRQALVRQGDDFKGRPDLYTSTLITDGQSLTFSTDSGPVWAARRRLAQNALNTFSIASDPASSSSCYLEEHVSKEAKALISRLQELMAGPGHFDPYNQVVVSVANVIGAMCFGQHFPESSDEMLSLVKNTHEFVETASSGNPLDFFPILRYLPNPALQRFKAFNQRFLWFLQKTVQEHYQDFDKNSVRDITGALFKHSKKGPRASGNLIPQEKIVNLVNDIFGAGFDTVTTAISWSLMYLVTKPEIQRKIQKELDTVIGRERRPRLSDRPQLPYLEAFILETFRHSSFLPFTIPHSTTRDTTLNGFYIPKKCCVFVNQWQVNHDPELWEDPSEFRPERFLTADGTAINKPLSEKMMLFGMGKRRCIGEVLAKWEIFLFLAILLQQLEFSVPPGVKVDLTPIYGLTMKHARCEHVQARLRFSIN

[2] = biological target: T2, human CYP2C9 (Homo sapiens, UniProt P11712); conditions: human
[3] = biological target: T3, human CYP2C19 (Homo sapiens, UniProt P33261); conditions: human
[4] = biological target: T4, human CYP2D6 (Homo sapiens, UniProt P10635); conditions: human
[5] = biological target: T1, human CYP1A2; experiment: biochemical
[6] = biological target: T2, human CYP2C9; experiment: biochemical
[7] = biological target: T3, human CYP2C19; experiment: biochemical
[8] = biological target: T4, human CYP2D6; experiment: biochemical; conditions: for AC50: CYP2D6 AC50 (half-maximal activity concentration)
[9] = CYP1A2 IC50 (half-maximal inhibitory concentration)
[10] = CYP2C9 IC50 (half-maximal inhibitory concentration)
[11] = CYP2C19 IC50 (half-maximal inhibitory concentration)
[12] = CYP2D6 IC50 (half-maximal inhibitory concentration)
[13] = CYP1A2 AC50 (half-maximal activity concentration)
[14] = CYP2C9 AC50 (half-maximal activity concentration)
[15] = CYP2C19 AC50 (half-maximal activity concentration)

T4 sequence (P10635 whole entry): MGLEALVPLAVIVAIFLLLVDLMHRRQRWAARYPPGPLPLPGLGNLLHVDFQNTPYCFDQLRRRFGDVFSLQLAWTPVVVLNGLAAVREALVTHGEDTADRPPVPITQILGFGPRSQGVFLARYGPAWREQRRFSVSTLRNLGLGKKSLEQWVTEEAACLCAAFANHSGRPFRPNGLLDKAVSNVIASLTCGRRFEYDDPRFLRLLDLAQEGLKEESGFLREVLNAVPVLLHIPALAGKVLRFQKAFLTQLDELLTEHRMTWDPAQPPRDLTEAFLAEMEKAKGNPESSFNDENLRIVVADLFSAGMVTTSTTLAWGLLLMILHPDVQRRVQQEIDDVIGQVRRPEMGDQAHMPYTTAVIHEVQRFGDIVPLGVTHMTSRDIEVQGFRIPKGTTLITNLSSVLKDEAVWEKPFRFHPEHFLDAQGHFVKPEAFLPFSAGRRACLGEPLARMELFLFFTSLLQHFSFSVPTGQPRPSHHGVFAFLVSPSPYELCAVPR
T3 sequence (P33261 whole entry): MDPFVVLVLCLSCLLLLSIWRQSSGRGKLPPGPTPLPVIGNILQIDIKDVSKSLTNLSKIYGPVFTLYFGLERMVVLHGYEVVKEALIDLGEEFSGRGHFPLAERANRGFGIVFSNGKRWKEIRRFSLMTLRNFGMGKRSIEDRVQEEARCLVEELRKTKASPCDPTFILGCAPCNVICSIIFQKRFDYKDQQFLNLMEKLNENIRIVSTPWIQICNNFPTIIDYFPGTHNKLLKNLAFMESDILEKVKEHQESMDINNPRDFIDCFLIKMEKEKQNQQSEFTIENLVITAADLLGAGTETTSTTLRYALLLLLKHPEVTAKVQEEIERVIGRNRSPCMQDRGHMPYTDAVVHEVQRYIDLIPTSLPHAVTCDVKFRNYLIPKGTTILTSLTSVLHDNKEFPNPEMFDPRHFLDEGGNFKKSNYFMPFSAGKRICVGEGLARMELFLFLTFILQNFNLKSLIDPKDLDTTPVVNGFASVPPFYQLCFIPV
T2 sequence (P11712 whole entry): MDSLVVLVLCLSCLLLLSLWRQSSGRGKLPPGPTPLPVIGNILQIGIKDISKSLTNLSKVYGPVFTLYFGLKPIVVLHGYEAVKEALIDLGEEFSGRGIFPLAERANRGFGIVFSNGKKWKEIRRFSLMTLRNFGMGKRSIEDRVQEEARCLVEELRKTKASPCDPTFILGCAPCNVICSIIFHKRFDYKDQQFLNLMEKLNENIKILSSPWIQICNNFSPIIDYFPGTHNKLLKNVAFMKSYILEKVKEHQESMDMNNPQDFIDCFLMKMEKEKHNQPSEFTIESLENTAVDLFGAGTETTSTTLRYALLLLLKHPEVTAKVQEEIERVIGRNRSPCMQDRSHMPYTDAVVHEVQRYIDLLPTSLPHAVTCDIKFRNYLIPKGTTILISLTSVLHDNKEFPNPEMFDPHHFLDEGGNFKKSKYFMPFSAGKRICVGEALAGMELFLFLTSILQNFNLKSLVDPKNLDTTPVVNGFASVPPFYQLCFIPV

Row | Structure (SMILES) | IC50 [5, 9] | IC50 [6, 10] | IC50 [7, 11] | IC50 [8, 12] | IC50 [6] | IC50 [8] | also measured
1 | O=S(=O)(c1ccc(Cl)cc1)c1ccc(Cl)cc1 [4,4'-Dichlorodiphenyl sulfone] | 36.2 µM | 31.4 µM | 0.34 µM | 40.6 µM | – | – | CYP1A2 Efficacy (in parenthesis) [1]: 36.17 ± 4.16 (-44 ± 9) %; CYP2C9 Efficacy (in parenthesis) [2]: 31.35 ± 2.66 (-52 ± 4) %; CYP2C19 Efficacy (in parenthesis) [3]: 0.34 ± 0.1 (-146 ± 11) %; CYP2D6 Efficacy (in parenthesis) [4]: 40.58 ± 4.66 (-51 ± 10) %
2 | CCOC(=O)[C@H](CCc1ccccc1)N[C@H]1CCc2ccccc2N(CC(=O)O)C1=O [Benazepril] | 14 µM | 7.32 µM | 6.84 µM | 29.2 µM | – | – | –
3 | CC(Cc1cccc(C(F)(F)F)c1)NCCOC(=O)c1ccccc1 (stereo not shown) [Benfluorex hydrochloride] | 2.6 µM | 25.3 µM | 6.95 µM | 0.08 µM | – | – | –
4 | COc1ccc2c(c1OC)CN1CCc3cc4c(cc3[C@@H]1C2)OCO4 [Canadine] | 9.1 µM | 26.4 µM | 1.25 µM | 0.26 µM | – | – | –
5 | COC(=O)c1c(Cl)c(Cl)c(C(=O)OC)c(Cl)c1Cl [Chlorthal-dimethyl] | – | – | – | – | 1.43 µM | 45 µM | CYP2D6 Efficacy (in parenthesis) ([4]; 1 h): 44.96 ± 16.37 (-48 ± 8) %; AC50 [5]: 0.29 µM; IC50 [5]: 0.21 µM; AC50 [6]: 1.46 µM; AC50 [7]: 21.8 µM; IC50 [7]: 20.7 µM
6 | COCCOC(=O)C1=C(C)NC(C)=C(C(=O)OC/C=C/c2ccccc2)C1c1cccc([N+](=O)[O-])c1 (stereo not shown) [Cilnidipine] | 15.6 µM | 0.21 µM | 1.75 µM | 29.2 µM | – | – | –
7 | CC(C)(C)C(=O)C(Oc1ccc(Cl)cc1)n1ccnc1 (stereo not shown) [Climbazole] | 16.1 µM | 3.23 µM | 1.56 µM | 28.7 µM | – | – | –
8 | CC[N+](CC)(CC(=O)Nc1c(C)cccc1C)Cc1ccccc1 [Denatonium benzoate] | 38.5 µM | – | 38.5 µM | 0.01 µM | – | – | CYP1A2 Efficacy (in parenthesis) [1]: 38.47 ± 2.51 (-59 ± 16) %; CYP2C19 Efficacy (in parenthesis) [3]: 38.47 ± 2.51 (-100 ± 4) %; CYP2D6 Efficacy (in parenthesis) [4]: 0.01 ± 0 (-107 ± 7) %
9 | Clc1ccc(COC(Cn2ccnc2)c2ccc(Cl)cc2Cl)cc1 (stereo not shown) [Econazole nitrate] | 1.18 µM | – | 0.15 µM | 0.4 µM | – | – | CYP1A2 Efficacy (in parenthesis) [1]: 1.18 ± 0.6 (-104 ± 2) %; CYP2C19 Efficacy (in parenthesis) [3]: 0.15 ± 0.02 (-152 ± 3) %; CYP2D6 Efficacy (in parenthesis) [4]: 0.4 ± 0.23 (-105 ± 10) %
10 | O=C(OCC(O)CO)c1ccccc1Nc1ccnc2c(C(F)(F)F)cccc12 (stereo not shown) [Floctafenine] | – | – | – | – | 10.2 ± 0.69 µM | 23.6 ± 7.75 µM | IC50 [5]: 2.91 ± 0.17 µM; IC50 [7]: 0.35 µM
11 | CC(COc1ccccc1)NC(C)C(O)c1ccc(O)cc1 (stereo not shown) [Isoxsuprine hydrochloride] | 16.1 µM | 14.9 µM | 7.99 µM | 0.55 µM | – | – | AC50 [5, 13]: 16.1 µM; AC50 [6, 14]: 14.9 µM; AC50 [7, 15]: 7.99 µM; AC50 [8]: 0.55 µM
12 | COc1c2occc2c(OC)c2c(=O)cc(C)oc12 [Khellin] | 0.15 µM | 14.4 µM | 6.65 µM | 14.5 µM | – | – | –
13 | CCOC(=O)C1=C(C)NC(C)=C(C(=O)OCC)C1c1ccccc1/C=C/C(=O)OC(C)(C)C [Lacidipine] | 23.9 µM | 1.29 µM | 6.72 µM | 15.7 µM | – | – | –
14 | N#C/C(=C1/SCC(c2ccccc2Cl)S1)n1ccnc1 (stereo not shown) [Lanoconazole] | – | – | – | – | 2.77 ± 0.32 µM | 2.58 ± 0.46 µM | CYP2D6 Efficacy (in parenthesis) ([4]; 1 h): 2.58 ± 0.46 (-102 ± 1) %; IC50 [5]: 0.87 ± 0.1 µM; IC50 [7]: 0.12 ± 0.05 µM
15 | Clc1cccc(C(c2ccc3[nH]cnc3c2)n2ccnc2)c1 (stereo not shown) [Liarozole] | – | – | – | – | 11.2 ± 2.55 µM | 31 ± 3.57 µM | CYP2D6 Efficacy (in parenthesis) ([4]; 1 h): 31.04 ± 3.57 (-56 ± 13) %; IC50 [5]: 16.8 ± 1.09 µM; IC50 [7]: 7.61 ± 4.78 µM
16 | CC1CCC(C(C)C)C(OC(=O)c2ccccc2N)C1 (stereo not shown) [Menthyl anthranilate] | – | – | – | – | – | – | AC50 [5, 13]: 16.6 µM; AC50 [6, 14]: 4.33 µM; AC50 [7, 15]: 4.62 µM; AC50 [8]: 57.9 µM
17 | COc1ccc(C(c2ccc(OC)cc2)C(Cl)(Cl)Cl)cc1 [Methoxychlor] | 17.8 µM | 2.45 µM | 0.86 µM | 35.5 µM | – | – | –
18 | CCCCCOc1ccccc1/C(=C\SC)n1ccnc1 [Neticonazole] | – | – | – | – | 7.76 ± 3.93 µM | 7.69 ± 5.3 µM | IC50 [5]: 4.51 ± 2.88 µM; IC50 [7]: 3.49 ± 2.23 µM
19 | CC(C)OC(=O)c1cc(C(=O)OC(C)C)cc([N+](=O)[O-])c1 [Nitrothal-isopropyl] | – | – | – | – | 1.06 µM | 6.51 µM | IC50 [5]: 2.34 µM; IC50 [7]: 0.52 µM
20 | CCN(CC)Cc1nccn1-c1ccc([N+](=O)[O-])cc1C(=O)c1ccccc1Cl [Nizofenone] | – | – | – | – | 25.1 µM | 2.98 µM | CYP2D6 Efficacy (in parenthesis) ([4]; 1 h): 2.98 ± 0.19 (-103 ± 6) %; IC50 [5]: 19.8 µM; IC50 [7]: 18.8 µM
21 | C/C(=C(/OCCOc1ccc(Cl)cc1)c1ccc(Cl)cc1Cl)n1ccnc1 [Omoconazole] | – | – | – | – | 0.87 ± 0.1 µM | 1.67 ± 0.11 µM | IC50 [5]: 2.5 ± 0.24 µM; IC50 [7]: 0.92 ± 0.4 µM
22 | CCCCCC(C=O)=Cc1ccccc1 [Pentylcinnamaldehyde] | – | – | – | – | – | – | AC50 [5, 13]: 29.1 µM; AC50 [6, 14]: 37 µM; AC50 [7, 15]: 30.2 µM; AC50 [8]: 49.4 µM
23 | COP(=S)(OC)SCN1C(=O)c2ccccc2C1=O [Phosmet] | 6.92 µM | – | 0.47 µM | – | 2.04 µM | 24.6 µM | –
24 | CNC(=O)Oc1ccc2c(c1)[C@]1(C)CCN(C)[C@@H]1N2C [Physostigmine] | 55.4 µM | 80 µM | 45.4 µM | 0.59 µM | – | – | –
25 | CCCCOCCOCCOCc1cc2c(cc1CCC)OCO2 [Piperonyl butoxide] | 1.03 µM | 0.65 µM | 0.5 µM | 6.78 µM | – | – | –
26 | CC(=O)SCC(Cc1ccccc1)C(=O)NCC(=O)OCc1ccccc1 (stereo not shown) [Racecadotril] | 15.1 µM | 3.34 µM | 0.64 µM | 1.24 µM | – | – | –
27 | C[C@]12Cc3c[nH]nc3C[C@@H]1CC[C@@H]1[C@@H]2CC[C@@]2(C)[C@H]1CC[C@]2(C)O [Stanozolol] | 21.5 µM | 0.94 µM | 0.55 µM | 10.8 µM | – | – | –
28 | CCCc1c(OCCCCc2nnn[nH]2)ccc(C(C)=O)c1O [Tomelukast] | 54.3 µM | 0.15 µM | 0.15 µM | 31.7 µM | – | – | –
29 | CC(C)(C)C(O)C(Oc1ccc(Cl)cc1)n1cncn1 (stereo not shown) [Triadimenol] | 33.6 µM | 34.4 µM | 1.38 µM | 65.1 µM | – | – | –
30 | O[C@@H](COc1cccc2ncccc12)CN1CCN([C@@H]2c3ccccc3[C@@H]3[C@H](c4ccccc42)C3(F)F)CC1 [Zosuquidar trihydrochloride] | 15.5 µM | 9.14 µM | 20.4 µM | 15.2 µM | – | – | –

Reference: paper PMC12155096 (International Journal of Molecular Sciences, 2025)
